# Legend:
# HCV replicon genotype 1a = assay: microbe, parasite or virus in culture; type: cell-based; conditions: Hepatitis C virus, 96 h, HCV genotype 1a replicon cells, 96 hours incubation, NS3/4A ELISA readout
# HCV replicon genotype 1b = assay: microbe, parasite or virus in culture; type: cell-based; conditions: Hepatitis C virus, 96 h, HCV genotype 1b replicon cells, 96 hours incubation, NS3/4A ELISA readout
SMILES,IC50 (HCV replicon genotype 1a),IC50 (HCV replicon genotype 1b)
CNC(=O)c1c(-c2ccc(F)cc2)oc2cc(N(C)S(C)(=O)=O)c(-c3cc(F)c4ncn(-c5ccccc5)c4c3)cc12 [Compound 20],0.0061 µM,0.0024 µM
CNC(=O)c1c(-c2ccc(F)cc2)oc2cc(N(C)S(C)(=O)=O)c(-c3cn4c(-c5ccc(C(F)(F)F)cc5)cnc4cn3)cc12 [Compound 92],0.0129 µM,0.0051 µM
"CNC(=O)c1c(-c2ccc(F)cc2)oc2cc(N(C)S(C)(=O)=O)c(-c3ccc4onc(-c5ccccc5)c4c3)cc12 [Compound 83, 2-(4-fluorophenyl)-N-methyl-6-(N-methylmethylsulfonamido)-5-(3-phenylbenzo[d]isoxazol-5-yl)benzofuran-3-carboxamide]",0.0236 µM,0.0147 µM
"CNC(=O)c1c(-c2ccc(F)cc2)oc2cc(N(C)S(C)(=O)=O)c(-c3ccc4nnc(-c5ccc(C(F)(F)F)cc5)n4n3)cc12 [Compound 96, 2-(4-fluorophenyl)-N-methyl-6-(N-methylmethylsulfonamido)-5-(3-(4-(trifluoromethyl)phenyl)-[1,2,4]triazolo[4,3-b]pyridazin-6-yl)benzofuran-3-carboxamide]",0.0345 µM,0.0165 µM
CNC(=O)c1c(-c2ccc(F)cc2)oc2cc(N(C)S(C)(=O)=O)c(-c3cnc4ccn(-c5ccc(C#N)cc5)c4c3)cc12 [Compound 49],0.0083 µM,0.0033 µM
CNC(=O)c1c(-c2ccc(F)cc2)oc2cc(N(C)S(C)(=O)=O)c(-c3ccc4ncn(C5CCOCC5)c4c3)cc12 [Compound 26],0.0647 µM,0.012 µM
CNC(=O)c1c(-c2ccc(F)cc2)oc2cc(N(C)S(C)(=O)=O)c(-c3ccc4[nH]ccc4c3)cc12 [Compound 62],0.183 µM,0.0229 µM
CNC(=O)c1c(-c2ccc(F)cc2)oc2cc(N(C)S(C)(=O)=O)c(-c3cc4c(cn3)ncn4-c3ccc(F)cc3)cc12 [Compound 46],0.0745 µM,0.0107 µM
"CNC(=O)c1c(-c2ccc(F)cc2)oc2cc(N(C)S(C)(=O)=O)c(-c3cc(-c4nc5ncccc5o4)c4occc4c3)cc12 [Compound 97, 2-(4-fluorophenyl)-N-methyl-6-(N-methylmethylsulfonamido)-7′-(oxazolo[4,5-b]pyridin-2-yl)-[5,5′-bibenzofuran]-3-carboxamide]",0.0027 µM,0.0013 µM
"CNC(=O)c1c(-c2ccc(F)cc2)oc2cc(N(C)S(C)(=O)=O)c(-c3cc(OC)c4nc(N)n(-c5cc(F)cc(F)c5)c4c3)cc12 [Compound 78, 5-(2-amino-1-(3,5-difluorophenyl)-4-methoxy-1H-benzo[d]imidazol-6-yl)-2-(4-fluorophenyl)-N-methyl-6-(N-methylmethylsulfonamido)benzofuran-3-carboxamide]",0.019 µM,0.0053 µM
"CNC(=O)c1c(-c2ccc(F)cc2)oc2cc(N(C)S(C)(=O)=O)c(-c3ccc4c(n3)nc(-c3ccccc3)n4C(C)(C)C)cc12 [Compound 100, 5-(1-(tert-butyl)-2-phenyl-1H-imidazo[4,5-b]pyridin-5-yl)-2-(4-fluorophenyl)-N-methyl-6-(N-methylmethylsulfonamido)benzofuran-3-carboxamide]",0.297 µM,0.073 µM
CNC(=O)c1c(-c2ccc(F)cc2)oc2cc(N(C)S(C)(=O)=O)c(-c3cc(F)c4ncn(-c5cc(F)c(F)c(F)c5)c4c3)cc12 [Compound 31],0.0034 µM,0.0031 µM
CNC(=O)c1c(-c2ccc(F)cc2)oc2cc(N(C)S(C)(=O)=O)c(-c3cc(F)c4ncn(-c5ccc(F)c(F)c5)c4c3)cc12 [Compound 29],0.005 µM,0.0033 µM
CNC(=O)c1c(-c2ccc(F)cc2)oc2cc(N(C)S(C)(=O)=O)c(-c3ccc4ccn(CCO)c4c3)cc12 [Compound 69],0.147 µM,0.0174 µM
CNC(=O)c1c(-c2ccc(F)cc2)oc2cc(N(C)S(C)(=O)=O)c(-c3ccc4ncn(C5CCCN(C(=O)OC(C)(C)C)C5)c4c3)cc12 (stereo not drawn) [Compound 24],0.761 µM,0.0826 µM
CNC(=O)c1c(-c2ccc(F)cc2)oc2cc(N(C)S(C)(=O)=O)c(-c3ccc4c(ccn4-c4ccccc4)c3)cc12 [Compound 53],0.082 µM,0.0125 µM
CNC(=O)c1c(-c2ccc(F)cc2)oc2cc(N(C)S(C)(=O)=O)c(-c3cnc4ccn(-c5ccc(C(F)(F)F)cc5)c4c3)cc12 [Compound 48],0.0026 µM,0.0033 µM
CNC(=O)c1c(-c2ccc(F)cc2)oc2cc(N(C)S(C)(=O)=O)c(-c3cc4c(cn3)ncn4-c3cc(F)cc(F)c3)cc12 [Compound 45],0.0948 µM,0.0144 µM

SMILES,IC50 (HCV replicon genotype 1a),IC50 (HCV replicon genotype 1b)
CNC(=O)c1c(-c2ccc(F)cc2)oc2cc(N(C)S(C)(=O)=O)c(-c3ccc4ncn(-c5ccc(F)cc5)c4n3)cc12 [Compound 44],0.0565 µM,0.0077 µM
CNC(=O)c1c(-c2ccc(F)cc2)oc2cc(N(C)S(C)(=O)=O)c(-c3ccc4[nH]c(-c5ccccc5)nc4c3)cc12 [Compound 102],0.0146 µM,0.0051 µM
CNC(=O)c1c(-c2ccc(F)cc2)oc2cc(N(C)S(C)(=O)=O)c(-c3ccc4ncc(-c5ccc(F)cc5)n4n3)cc12 [Compound 95],0.0859 µM,0.044 µM
CNC(=O)c1c(-c2ccc(F)cc2)oc2cc(N(C)S(C)(=O)=O)c(-c3ccc4ncn(-c5ccc(OC(F)(F)F)cc5)c4c3)cc12 [Compound 17],0.0376 µM,0.0128 µM
CNC(=O)c1c(-c2ccc(F)cc2)oc2cc(N(C)S(C)(=O)=O)c(-c3ccc4ccn(-c5ccncc5)c4c3)cc12 [Compound 51],0.0346 µM,0.0078 µM
CNC(=O)c1c(-c2ccc(F)cc2)oc2cc(N(C)S(C)(=O)=O)c(-c3ccc4ccn(-c5ccc(F)cc5)c4n3)cc12 [Compound 64],0.409 µM,0.0761 µM
"CNC(=O)c1c(-c2ccc(F)cc2)oc2cc(N(C)S(C)(=O)=O)c(-c3cnc4ccn(-c5ccc(F)cc5)c4c3)cc12 [Compound 47, 2-(4-fluorophenyl)-5-(1-(4-fluorophenyl)-1H-pyrrolo[3,2-b]pyridin-6-yl)-N-methyl-6-(N-methylmethylsulfonamido)benzofuran-3-carboxamide]",0.0021 µM,0.0015 µM
"CNC(=O)c1c(-c2ccc(F)cc2)oc2cc(N(C)S(C)(=O)=O)c(-c3cc(OC)c4[nH]c(=O)n(-c5cc(F)cc(F)c5)c4c3)cc12 [Compound 80, 5-(3-(3,5-difluorophenyl)-7-methoxy-2-oxo-2,3-dihydro-1H-benzo[d]imidazol-5-yl)-2-(4-fluorophenyl)-N-methyl-6-(N-methylmethylsulfonamido)benzofuran-3-carboxamide]",0.009 µM,0.0066 µM
CNC(=O)c1c(-c2ccc(F)cc2)oc2cc(N(C)S(C)(=O)=O)c(-c3cc(F)c4ncn(-c5ccc(F)c(C(N)=O)c5)c4c3)cc12 [Compound 110],0.111 µM,0.0138 µM
CNC(=O)c1c(-c2ccc(F)cc2)oc2cc(N(C)S(C)(=O)=O)c(-c3cccc4nc(-c5ccccc5)oc34)cc12 [Compound 85],0.46 µM,0.235 µM
CNC(=O)c1c(-c2ccc(F)cc2)oc2cc(N(C)S(C)(=O)=O)c(-c3cn4c(-c5ccc(Cl)cc5)cnc4cn3)cc12 [Compound 93],0.0479 µM,0.0079 µM
CNC(=O)c1c(-c2ccc(F)cc2)oc2cc(N(C)S(C)(=O)=O)c(-c3ccc4c(ccn4-c4ccncc4)c3)cc12 [Compound 58],0.0072 µM,0.0026 µM
CNC(=O)c1c(-c2ccc(F)cc2)oc2cc(N(C)S(C)(=O)=O)c(-c3ccc4[nH]c(=O)n(-c5ccc(F)cc5)c4c3)cc12 [Compound 82],0.023 µM,0.0049 µM
"CNC(=O)c1c(-c2ccc(F)cc2)oc2cc(N(C)S(C)(=O)=O)c(-c3ccc4ncc(-c5ccc(C(F)(F)F)cc5)n4n3)cc12 [Compound 94, 2-(4-fluorophenyl)-N-methyl-6-(N-methylmethylsulfonamido)-5-(3-(4-(trifluoromethyl)phenyl)imidazo[1,2-b]pyridazin-6-yl)benzofuran-3-carboxamide]",0.0757 µM,0.0123 µM
CNC(=O)c1c(-c2ccc(F)cc2)oc2cc(N(C)S(C)(=O)=O)c(-c3ccc4nc(C)n(-c5ccccc5)c4c3)cc12 [Compound 18],0.0166 µM,0.0021 µM
CNC(=O)c1c(-c2ccc(F)cc2)oc2cc(N(C)S(C)(=O)=O)c(-c3ccc4ncn(-c5ccccc5Cl)c4c3)cc12 [Compound 11],0.0389 µM,0.0035 µM
CNC(=O)c1c(-c2ccc(F)cc2)oc2cc(N(C)S(C)(=O)=O)c(-c3ccc4ccn(Cc5ccc(F)cc5)c4c3)cc12 [Compound 68],0.0542 µM,0.0186 µM
"CNC(=O)c1c(-c2ccc(F)cc2)oc2cc(N(C)S(C)(=O)=O)c(-c3ccc4ncn(-c5ccc(OC)cc5)c4c3)cc12 [Compound 1, 2-(4-fluorophenyl)-5-(1-(4-methoxyphenyl)-1H-benzo[d]imidazol-6-yl)-N-methyl-6-(N-methylmethylsulfonamido)benzofuran-3-carboxamide]",0.0165 µM,0.0046 µM
